Experiments:
Assay in all cases: Ba/F3 drug screening, Cell Titer Glo, IC50 Mut/WT
Type in all cases: cell-based
[1] = target: T1, EGFR L858R S784F (Homo sapiens, UniProt P00533, L858R/S784F); details: Classical-Like, 72 hours
T1 construct: expressed in transfected cells; host or cells: Ba/F3 cells, retroviral pBabe-Puro vector (vector made by GeneScript from EGFR L858R)

[2] = target: T2, EGFR Ex19del (Homo sapiens, UniProt P00533, DEL746-750); details: Classical-Like, 72 hours
T2 construct: expressed in transfected cells; host or cells: Ba/F3 cells, retroviral pBabe-Puro vector

[3] = target: T3, EGFR L833F (Homo sapiens, UniProt P00533, L833F); details: Classical-Like, 72 hours
T3 construct: expressed in transfected cells; host or cells: Ba/F3 cells, retroviral pBabe-Puro vector

[4] = target: T4, EGFR L858R/T790M (Homo sapiens, UniProt P00533, L858R/T790M); details: T790M-like-3S, 72 hours
T4 construct: expressed in transfected cells; host or cells: Ba/F3

[5] = target: T5, EGFR G719A T790M (Homo sapiens, UniProt P00533, G719A/T790M); details: T790M-like-3S, 72 hours
T5 construct: expressed in transfected cells; host or cells: Ba/F3

[6] = target: T6, EGFR Ex19del G796S (Homo sapiens, UniProt P00533, DEL746-750/G796S); details: PACC; Ex19del G796S; Ba/F3; 72 hours
T6 construct: expressed in transfected cells; host or cells: Ba/F3

[7] = target: T7, EGFR L858R/T790M/C797S (Homo sapiens, UniProt P00533, C797S/L858R/T790M); details: T790M-like-3R, 72 hours
T7 construct: expressed in transfected cells; host or cells: Ba/F3

[8] = target: T8, EGFR S768dupSVD V769M (Homo sapiens, UniProt P00533, INS768MDS/V769M); details: Ex20, 72 hours
T8 construct: expressed in transfected cells; host or cells: Ba/F3 cells, retroviral pBabe-Puro vector (vector made by GeneScript from EGFR S768dupSVD, c.2305G > A)

[9] = tested on: EGFR I740dupIPVAK; details: PACC; I740dupIPVAK; Ba/F3; 72 hours
[10] = target: T9, EGFR L858R L718Q (Homo sapiens, UniProt P00533, L718Q/L858R); details: PACC; L858R L718Q; Ba/F3; 72 hours
T9 construct: host or cells: Ba/F3

[11] = target: T10, EGFR E709_T710del insD (Homo sapiens, UniProt P00533, DEL709-709/T710D); details: PACC; E709_T710del insD; Ba/F3; 72 hours
T10 construct: expressed in transfected cells; host or cells: Ba/F3

[12] = target: T11, EGFR L858R T790M L718V (Homo sapiens, UniProt P00533, L718V/L858R/T790M); details: T790M-like-3R, 72 hours
T11 construct: expressed in transfected cells; host or cells: Ba/F3

[13] = target: T12, EGFR G719A L861Q (Homo sapiens, UniProt P00533, G719A/L861Q); details: PACC; G719A L861Q; Ba/F3; 72 hours
T12 construct: expressed in transfected cells; host or cells: Ba/F3

[14] = target: T13, EGFR Ex19del T790M C797S (Homo sapiens, UniProt P00533, C797S/DEL746-750/T790M); details: T790M-like-3R, 72 hours
T13 construct: expressed in transfected cells; host or cells: Ba/F3

[15] = target: T14, EGFR S768I V774M (Homo sapiens, UniProt P00533, S768I/V774M); details: PACC; S768I V774M; Ba/F3; 72 hours
T14 construct: host or cells: Ba/F3

[16] = target: T15, EGFR T725M (Homo sapiens, UniProt P00533, T725M); details: Classical-Like, 72 hours
T15 construct: expressed in transfected cells; host or cells: Ba/F3 cells, retroviral pBabe-Puro vector (vector made by GeneScript from EGFR WT)

[17] = target: T16, EGFR L718Q T790M (Homo sapiens, UniProt P00533, L718Q/T790M); details: T790M-like-3R, 72 hours
T16 construct: expressed in transfected cells; host or cells: Ba/F3

[18] = target: T17, EGFR Ex19del G724S (Homo sapiens, UniProt P00533, DEL746-750/G724S); details: PACC; Ex19del G724S; Ba/F3; 72 hours
T17 construct: expressed in transfected cells; host or cells: Ba/F3

[19] = target: T18, EGFR Ex19del T790M (Homo sapiens, UniProt P00533, DEL746-750/T790M); details: T790M-like-3S, 72 hours
T18 construct: expressed in transfected cells; host or cells: Ba/F3

[20] = target: T19, EGFR L718Q (Homo sapiens, UniProt P00533, L718Q); details: PACC; L718Q; Ba/F3; 72 hours
T19 construct: expressed in transfected cells; host or cells: Ba/F3

[21] = target: T20, EGFR R776H (Homo sapiens, UniProt P00533, R776H); details: PACC; R776H; Ba/F3; 72 hours
T20 construct: host or cells: Ba/F3

[22] = target: T21, EGFR Ex19del T790M L718V (Homo sapiens, UniProt P00533, DEL746-750/L718V/T790M); details: T790M-like-3S, 72 hours
T21 construct: expressed in transfected cells; host or cells: Ba/F3

[23] = target: T22, EGFR L861R (Homo sapiens, UniProt P00533, L861R); details: Classical-Like, 72 hours
T22 construct: expressed in transfected cells; host or cells: Ba/F3 cells, retroviral pBabe-Puro vector (vector made by GeneScript from EGFR WT)

[24] = target: T23, EGFR A763insFQEA (Homo sapiens, UniProt P00533, INS763FQEA); details: Classical-Like, 72 hours
T23 construct: expressed in transfected cells; host or cells: Ba/F3 cells, retroviral pBabe-Puro vector

[25] = target: T24, EGFR L858R (Homo sapiens, UniProt P00533, L858R); details: Classical-Like, 72 hours
T24 construct: expressed in transfected cells; host or cells: Ba/F3 cells, retroviral pBabe-Puro vector

[26] = target: T25, EGFR R776C (Homo sapiens, UniProt P00533, R776C); details: PACC; R776C; Ba/F3; 72 hours
T25 construct: host or cells: Ba/F3

In the case of `COc1cc2ncnc(Nc3ccc(F)c(Cl)c3)c2cc1NC(=O)/C=C/CN1CCCCC1` [Dacomitinib], the “ratio of IC50 for cells with mutant EGFR to IC50 for cells with wildtype EGFR (Mut/WT)” value (“ratio of IC50 for cells with mutant EGFR” for short) [1] is reported as 0.06448, the “ratio of IC50 for cells with mutant EGFR” value [2] is reported as 0.005832 and the “ratio of IC50 for cells with mutant EGFR” value [3] is reported as 0.1863. For the same molecule, the “ratio of IC50 for cells with mutant EGFR” value [4] was 10, the “ratio of IC50 for cells with mutant EGFR” value [5] was 0.9195 and the “ratio of IC50 for cells with mutant EGFR” value [6] was 0.2371. For the same molecule, the “ratio of IC50 for cells with mutant EGFR” value [7] was 41.69, the “ratio of IC50 for cells with mutant EGFR” value [8] was 3.097 and the “ratio of IC50 for cells with mutant EGFR” value [9] was 0.01376. The “ratio of IC50 for cells with mutant EGFR” value [10] was 0.051, the “ratio of IC50 for cells with mutant EGFR” value [11] was 0.08391 and the “ratio of IC50 for cells with mutant EGFR” value [12] was 20.65. For the same molecule, the “ratio of IC50 for cells with mutant EGFR” value [13] was 0.002249, the “ratio of IC50 for cells with mutant EGFR” value [14] was 38.03 and the “ratio of IC50 for cells with mutant EGFR” value [15] was 0.1407. The “ratio of IC50 for cells with mutant EGFR” value [16] was 0.03062, the “ratio of IC50 for cells with mutant EGFR” value [17] was 4.784 and the “ratio of IC50 for cells with mutant EGFR” value [18] was 0.1707. The “ratio of IC50 for cells with mutant EGFR” value [19] was 4.871, the “ratio of IC50 for cells with mutant EGFR” value [20] was 0.3828 and the “ratio of IC50 for cells with mutant EGFR” value [21] was 0.001367. The “ratio of IC50 for cells with mutant EGFR” value [22] was 89.62, the “ratio of IC50 for cells with mutant EGFR” value [23] was 0.001653 and the “ratio of IC50 for cells with mutant EGFR” value [24] was 0.0379. For the same molecule, the “ratio of IC50 for cells with mutant EGFR” value [25] was 0.002159 and the “ratio of IC50 for cells with mutant EGFR” value [26] was 0.1215.

From US20240384350A1, “METHODS OF TREATING CANCER WITH KINASE INHIBITORS” (BOARD OF REGENTS, THE UNIVERSITY OF TEXAS SYSTEM, priority 2021, published 2024)
